Reference: patent US10407467B2, “Polymyxin derivatives and their use in combination therapy together with different antibiotics” (priority 2013, dated 2019)
Bridge positions count the residues as written; N and C are the ends. Square brackets hold non-standard residues; d marks the D form. Peptide text beside a SMILES is read from it. * marks the point of attachment. ξ: configuration not given here. ξβ3hGly(cHex) = NC(CC(=O)*)C1CCCCC1; Thr(3ξ) = CC(O)[C@H](N)C(=O)O; Dab = NCC[C@H](N)C(=O)O

Key:
[1] = tested on: Escherichia coli isolate ATCC25922; conditions: 10 mg/kg/day (5 mg/kg BID subcutaneous), neutropenic CD-1 mice, 24 h post-infection
Protocol: At 1 h, the CFU count was determined from 5 mice and the remaining mice (five per group) were treated with a subcutaneous injection of the drug at +1 and 6 hr post-infection.
Twenty-four hours after infection, the mice were euthanized humanely. The muscle of the right thigh of each animal was harvested, homogenized, serially diluted and plated on Brain Heart Infusion agar+0.5% charcoal (w/v) for CFU determination. Decrease of the total CFU of right thigh as compared to control counts at 24 h post-infection was determined for each dose group.

[2] = tested on: Acinetobacter baumannii; assay: MIC, sole activity (no second agent); assay type: cell-based
How it was run: (§1)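 Inoculum: direct colony suspension (18-24 h MH agar), 0.5 McFarland. Medium: cation-adjusted MHB. Up to 4 strains/species; reported relative to Polymyxin B.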

[3] = tested on: Escherichia coli; assay: MIC, sole activity (no second agent); assay type: cell-based
How it was run: as §1

[4] = tested on: Pseudomonas aeruginosa; assay: MIC, sole activity (no second agent); assay type: cell-based
How it was run: as §1

[5] = tested on: Klebsiella pneumoniae; assay: MIC, sole activity (no second agent); assay type: cell-based
How it was run: as §1

[6] = Second Agent none (Table 7B, by row order)

What does the source list for `CC(C)C[C@@H]1NC(=O)[C@@H](Cc2ccccc2)NC(=O)[C@H](CCN)NC(=O)[C@@H](NC(=O)[C@H](CCN)NC(=O)[C@@H](NC(=O)CC(N)C2CCCCC2)C(C)O)CCNC(=O)[C@H](C(C)O)NC(=O)[C@H](CCN)NC(=O)[C@H](CCN)NC1=O` (stereo partly drawn) [Example 10, [3(R,S)-3-Amino-3-cyclohexane-propanoyl]Polymyxin B nonapeptide] ({ξβ3hGly(cHex)}-[Thr(3ξ)][Dab][Dab][Dab][dF]L[Dab][Dab][Thr(3ξ)]; lactam 3-C)?
reduction in bacterial counts [1]: over 3 log10; MIC A. baumannii NCTC 13424 [2, 6]: 2 micrograms/mL; MIC A. baumannii NCTC 13424 ([2]; Second Agent none (Table 7E)): 0.5 micrograms/mL; MIC A. baumannii NCTC 13424 ([2]; Table 7F, A. baumannii NCTC 13424, second agent none): 0.5 micrograms/mL; MIC A. baumannii NCTC 13424 ([2]; Table 7H, A. baumannii NCTC 13424, second agent none): 0.5 micrograms/mL; MIC A. baumannii ATCC13424 ([2]; in the absence of Rifampicin, strain ATCC13424): 1 micrograms/mL; MIC A. baumannii ATCCBAA-747 ([2]; in the absence of Rifampicin, strain ATCCBAA-747): 0.5 micrograms/mL; MIC A. baumannii CCUG57249 ([2]; in the absence of Rifampicin, strain CCUG 57249): 0.5 micrograms/mL; MIC A. baumannii NCTC 13423 ([2]; in the absence of Rifampicin, strain NCTC13423): 0.125 micrograms/mL; MIC E. coli NCTC9001 ([3]; E. coli NCTC9001, second agent none): 4 micrograms/mL; MIC E. coli NCTC9001 ([3]; Second Agent none (Table 7A)): 4 microgram/mL; MIC E. coli ATCC25922 ([3]; Second Agent none (Table 7B)): 4 micrograms/mL; MIC E. coli CCUG 59342 ([3]; Second Agent none (Table 7B)): 0.5 micrograms/mL; MIC E. coli NCTC9001 ([3]; Second Agent none (Table 7B)): 8 micrograms/mL; MIC E. coli NCTC9001 ([3]; Second Agent none (Table 7C)): 4 micrograms/mL; MIC E. coli ATCC25922 ([3]; Second Agent none (Table 7E)): 8 micrograms/mL; MIC E. coli NCTC 13441 ([3]; Second Agent none (Table 7E)): 8 micrograms/mL; MIC E. coli ATCC25922 ([3]; Table 7F, E. coli ATCC25922, second agent none): 8 micrograms/mL; MIC E. coli NCTC 13441 ([3]; Table 7F, E. coli NCTC 13441, second agent none): 8 micrograms/mL; MIC E. coli ATCC25922 ([3]; Table 7G, E. coli ATCC25922, second agent none): 8 micrograms/mL; MIC E. coli ATCC25922 ([3]; Table 7H, E. coli ATCC25922, second agent none): 8 micrograms/mL; MIC E. coli NCTC 13441 ([3]; Table 7H, E. coli NCTC 13441, second agent none): 8 micrograms/mL; MIC E. coli ATCC25922 ([3]; Table 7I, E. coli ATCC25922, second agent none): 8 micrograms/mL; MIC E. coli ATCC25922 ([3]; in the absence of Rifampicin, strain ATCC25922): 2 micrograms/mL; MIC E. coli NCTC9001 ([3]; in the absence of Rifampicin, strain NCTC9001): 4 micrograms/mL; MIC P. aeruginosa CCUG 59626 ([4]; P. aeruginosa CCUG 59626, second agent none): 0.25 micrograms/mL; MIC P. aeruginosa ATCC 27853 [4, 6]: 0.25 micrograms/mL; MIC P. aeruginosa CCUG 59626 [4, 6]: 0.25 micrograms/mL; MIC P. aeruginosa CCUG 59626 ([4]; Second Agent none (Table 7C)): 0.25 micrograms/mL; MIC P. aeruginosa ATCC 10145 ([4]; Second Agent none (Table 7E)): 0.25 micrograms/mL; MIC P. aeruginosa ATCC 10145 ([4]; Table 7F, P. aeruginosa ATCC 10145, second agent none): 0.25 micrograms/mL; MIC P. aeruginosa ATCC 10145 ([4]; Table 7H, P. aeruginosa ATCC 10145, second agent none): 0.25 micrograms/mL; MIC P. aeruginosa ATCC 27853 ([4]; in the absence of Rifampicin, strain ATCC27853): 0.5 micrograms/mL; MIC P. aeruginosa ATCC-47 ([4]; in the absence of Rifampicin, strain ATCC-47): 1 micrograms/mL; MIC P. aeruginosa ATCCCRM-9027 ([4]; in the absence of Rifampicin, strain ATCCCRM-9027): 0.25 micrograms/mL; MIC P. aeruginosa CCUG 59626 ([4]; in the absence of Rifampicin, strain CCUG 59626): 0.25 micrograms/mL; MIC K. pneumoniae ATCC BAA-1706 ([5]; K. pneumoniae ATCC BAA-1706, second agent none): 0.5 micrograms/mL; MIC K. pneumoniae CCUG 59348 ([5]; K. pneumoniae CCUG 59348, second agent none): >32 micrograms/mL; MIC K. pneumoniae NCTC 13442 ([5]; K. pneumoniae NCTC 13442, second agent none): >32 micrograms/mL; MIC K. pneumoniae CCUG 59348 ([5]; Second Agent none (Table 7A)): >32 microgram/mL; MIC K. pneumoniae CCUG 59626 ([5]; Second Agent none (Table 7A)): 0.25 microgram/mL; MIC K. pneumoniae NCTC 13442 ([5]; Second Agent none (Table 7A)): >32 microgram/mL; MIC K. pneumoniae CCUG 59348 ([5]; Second Agent none (Table 7B)): >32 micrograms/mL; MIC K. pneumoniae NCTC 13442 ([5]; Second Agent none (Table 7B)): >32 micrograms/mL; MIC K. pneumoniae ATCC 4352 [5, 6]: 0.5 micrograms/mL; MIC K. pneumoniae ATCC BAA-1706 [5, 6]: 0.5 micrograms/mL; MIC K. pneumoniae CCUG 59348 ([5]; Second Agent none (Table 7C)): >32 micrograms/mL; MIC K. pneumoniae NCTC 13442 ([5]; Second Agent none (Table 7C)): >32 micrograms/mL; MIC K. pneumoniae ATCC 4352 ([5]; Second Agent none (Table 7E)): 1 micrograms/mL; MIC K. pneumoniae CCUG 59349 ([5]; Second Agent none (Table 7E)): 8 micrograms/mL; MIC K. pneumoniae ATCC 4352 ([5]; Table 7F, K. pneumoniae ATCC4352, second agent none): 1 micrograms/mL; MIC K. pneumoniae CCUG 59349 ([5]; Table 7F, K. pneumoniae CCUG 59349, second agent none): 8 micrograms/mL; MIC K. pneumoniae ATCC 4352 ([5]; Table 7G, K. pneumoniae ATCC4352, second agent none): 1 micrograms/mL; MIC K. pneumoniae ATCC 4352 ([5]; Table 7H, K. pneumoniae ATCC4352, second agent none): 1 micrograms/mL; MIC K. pneumoniae CCUG 59349 ([5]; Table 7H, K. pneumoniae CCUG 59349, second agent none): 8 micrograms/mL; MIC K. pneumoniae ATCC 4352 ([5]; Table 7I, K. pneumoniae ATCC4352, second agent none): 1 micrograms/mL; MIC K. pneumoniae ATCC 4352 ([5]; in the absence of Rifampicin, strain ATCC 4352): 1 micrograms/mL; MIC K. pneumoniae ATCC-BAA2146 ([5]; in the absence of Rifampicin, strain ATCC-BAA2146): 32 micrograms/mL; MIC K. pneumoniae CCUG-59348 ([5]; in the absence of Rifampicin, strain CCUG-59348): >32 micrograms/mL; MIC K. pneumoniae NCTC-13438 ([5]; in the absence of Rifampicin, strain NCTC-13438): >32 micrograms/mL
